Laboratory results taken from patent publication US20140039044A1, “Hydroxylated Polymethoxyflavone Compositions” (WLLGEN, INC., priority 2006, published 2014).
Like-named read-outs stand apart in the source and are kept apart here.

Key:
[1] = test system: MCF-7 breast cancer cells; assay: Cell growth inhibition (cell number, total nucleic acid content); format: cell-based, human; settings: for IC50: MCF-7 cells, average of the day 3 and day 6 determinations, read-out: Inhibition of cell proliferation (IC50); for Inhibition of proliferation, in words: MCF-7 cells, 1, 3 or 6 days, FIG. 7
Description: Human colon carcinoma COLO205 and HT-29 cell lines (American Type Culture Collection (ATTC), Manassas, Va.) and the leukemia cell line HL-60 were maintained at 37° C. in 5% CO2 air in RPMI 1640 medium supplemented with 10% heat-inactivated fetal bovine serum (Gibco BRL, Grand Island, N.Y.), 100 units/mL penicillin, 100 μg/mL streptomycin and 2 mM 1-glutamine. The human gastric carcinoma AGS cell line (CCRC 60102), obtained from the Food Industry Research and Development Institute (Hsinchu, Taiwan), was maintained as described above, except that DMEM/F 12 was used as the medium rather than the RPMI 1640 medium. The human breast carcinoma MCF-7 cell line MCF-7 (ATTC) was cultured in RPMI 1640 medium supplemented with 5% fetal calf serum at 37° C. in a humidified atmosphere of 5% CO2 in air. The mouse macrophage cell line RAW 264.7 was maintained in RPMI 1640 supplemented with 100 U/ml penicillin, 100 μg/ml streptomycin, and 10% heat-inactivated fetal calf serum.
Cancer cells (2×10^5) were plated in 12-well Petri dishes. The next day, the medium was changed and treated with different concentration of the test compounds or compositions for 24 h. Where individual compounds were to be tested, stock solutions of the compound was prepared to contain 200 μM of the individual hydroxylated or non-hydroxylated PMF in dimethylsulfoxide (DMSO). Control cells were treated with DMSO to a final concentration of 0.05% (v/v). Depending on the objective of the particular experiment, cells were treating with test compound or composition for 1, 3 or 6 days. At the end of incubation, cells were harvested for cell count using a hemocytometer and measuring the cellular total nucleic acid content with the CyQUANT Cell Proliferation Assay Kit (Molecular Probes).
FIG. 7 presents cell number data, where cell numbers of cells treated to PMFs are presented as a percentage of control cells. The IC50 values for inhibition of cell proliferation are presented in Table 15 in which the concentration inhibiting cell growth by 50%, IC50, is presented as the average of the day 3 and day 6 determinations. The apparent minimal effective concentrations, ECmin, for induction of cell death, apoptosis, and increase in [Ca^2+]i are also indicated.

[2] = test system: COX-2 mRNA; assay: LPS-induced COX-2 mRNA expression by real-time PCR; format: cell-based, mouse; settings: RAW264.7 macrophages, 100 ng/mL LPS, 20 μM, relative to G3PDH, FIG. 6
Description: Bacterial lipopolysaccharide (LPS)-induced COX-2 expression was monitored in RAW264.7 macrophages, as previously described. Briefly, COX-2 expression was determined in untreated cells and cells treated with 100 ng/mL LPS either in the absence or the presence of 20 μM 5-hydroxy-3,6,7,8,3′,4′-hexamethoxyflavone. COX-2 mRNA levels were determined by real-time PCR where the values obtained were relative to expression of glyceraldehyde-3-phosphate dehydrogenase (G3PDH).

[3] = test system: iNOS; assay: Western blot of LPS-induced iNOS protein expression; format: cell-based, mouse; settings: LPS-activated macrophages, 30 μM, 24 h, FIG. 4
Description: (§1) Proteins were isolated from cells after treatment with test compounds for 24 h. Total protein was extracted by adding 200 μL of gold lysis buffer (50 mM Tris-HCl, pH 7.4; 1 mM NaF; 150 mM NaCl; 1 mM EGTA; 1 mM phenylmethanesulfonyl fluoride; 1% NP-40; and 10 μg/mL leupeptin) to the cell pellets, which were kept on ice for 30 minutes, followed by centrifugation at 10,000×g for 30 min at 4° C. The protein concentrations of the cytosolic fraction (supernatant) were measured by BIO-RAD Protein Assay (Bio-Rad Laboratories, Munich, Germany). Samples containing 50 μg of protein were electrophoretically separated by SDS-PAGE and transferred to PVDF membrane (Millipore Corp., Bedford, Mass.) using standard procedures. See Burnette (1981) Anal. Biochem. 112:195-203. […]
(§2) Western blot analysis of inhibition of LPS-induced iNOS and COX-2 protein expression by PMFs was analyzed, following procedures described above. […] Equal amounts of total proteins (50 μg) were subjected to 10% SDS-PAGE, and expression of iNOS, COX-2 and β-actin protein was detected by Western blot using specific antibodies.

[4] = test system: COX-2; assay: Western blot of LPS-induced COX-2 protein expression; format: cell-based, mouse; settings: LPS-activated macrophages, 30 μM, 24 h, FIG. 4
Description: as §1, §2

[5] = test system: LPS-induced NFκB promoter activities in RAW264.7 macrophages; assay: NFκB-dependent luciferase reporter assay; format: cell-based, mouse; settings: FIG. 5
Description: RAW264.7 cells were seeded in […]. When the cells were confluent, the medium was replaced with serum-free Opti-MEM (Gibco-BRL). Then the cells were transfected with the p-NFκB-Luc plasmid reporter gene using LIPOFECTAMINE™ reagent (Invitrogen). After 6 h incubation, the medium was replaced with complete medium. After 24 h, the cells were trypsinized and equal numbers of cells were plated in 24 well tissue culture plates for 6 h. Cells were then treated with LPS (100 ng/ml) alone or with PMFs (10 or 30 μM) for 12 h. Each well was wash twice with cold PBS and harvested in 100 μl serum-free DMEM, and the luciferase activity was assayed by LUCILITE luciferase reporter gene assay kit (PerkinElamer). Luminescence was measured in a Luminescence counter (Molecular Devices, LMaxII) in single photon counting mode for 2 sec/well, following 5 min adaptation in the dark.
To confirm whether selected PMFs inhibited NFκB binding activity in LPS-induced macrophages, assessment of luciferase expression in cells transiently transfected with NFκB-dependent luciferase reporter plasmid was assessed according to the procedures described above in Section 8.4.

| Structure (SMILES) | IC50 ([1]; Homo sapiens, MCF7) [µM] | Inhibition of proliferation, in words [1] | other results |
| --- | --- | --- | --- |
| COc1ccc(-c2cc(=O)c3c(OC)c(OC)c(OC)cc3o2)cc1O [Compound 5, 3′-hydroxy-5,6,7,4′-tetramethoxyflavone] | 10.5 | inhibited proliferation of MCF-7 breast cancer cells in a dose- and time-dependent fashion | – |
| COc1ccc(-c2cc(=O)c3c(OC)c(OC)c(OC)cc3o2)cc1OC [Compound 7, 5,6,7,3′,4′-pentamethoxyflavone, reference compound] | > 50 | inhibited proliferation of MCF-7 breast cancer cells in a dose- and time-dependent fashion | – |
| COc1ccc(-c2oc3c(OC)c(OC)c(OC)c(O)c3c(=O)c2OC)cc1OC [Compound C, 5-hydroxy-3,6,7,8,3′,4′-hexamethoxyflavone] | 2.5 | inhibited proliferation of MCF-7 breast cancer cells in a dose- and time-dependent fashion | Inhibition of LPS-induced COX-2 mRNA expression, in words [2]: inhibits LPS-induced COX-2 mRNA expression |
| COc1ccc(-c2cc(=O)c3c(O)c(OC)c(OC)c(OC)c3o2)cc1O [Compound K, 5,3′-dihydroxy-6,7,8,4′-tetramethoxyflavone] | – | – | Inhibition of iNOS expression (Western blot), in words [3]: most potent inhibitor of iNOS expression |
| COc1ccc(-c2oc3c(OC)c(OC)c(OC)c(OC)c3c(=O)c2OC)cc1OC [D, 3,5,6,7,8,3,4-heptamethoxyflavone, reference compound] | – | inhibited proliferation of MCF-7 breast cancer cells in a dose- and time-dependent fashion | IC50 [1]: > 50 µM |
| COc1c(OC)c(OC)c2c(=O)cc(-c3ccc(O)c(O)c3)oc2c1OC [H, 3′,4′-dihydroxy-5,6,7,8-tetramethoxyflavone] | – | – | Inhibition of COX-2 expression (Western blot), in words [4]: most potent inhibitor of COX-2 expression; Rank of inhibitory potency on LPS-induced NFκB transcriptional activity ([5]; RAW264.7, 30 μM): greatest inhibitory potency of PMFs tested; Inhibition of LPS-induced NFκB transcriptional activity, in words ([5]; RAW264.7, LPS 100 ng/ml, PMF 10 or 30 μM, 12 h): inhibited LPS-induced NFκB transcriptional activity in a concentration-dependent manner |
